ChEMBL document CHEMBL1201862, “PubChem BioAssay data set” (2004)
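Results reflect a 48-hour exposure of cells in 96-well plates to compound at five concentrations. The concentration for 50% growth inhibition is given as GI50.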 Activity calls are given as the source filed them. Rule as the data show it: active = GI50 up to about 1.1 µM and inactive = higher.

What was measured:
Assay in all cases: inhibition of tumour cell growth, NCI panel, 48 h
786-0 = system: 786-0
A498 = system: A498
A549 = system: A549
ACHN = system: ACHN
BT-549 = system: BT-549
CAKI-1 = system: CAKI-1
CCRF-CEM = system: CCRF-CEM
COLO 205 = system: COLO 205
DU-145 = system: DU-145
EKVX = system: EKVX
HCC 2998 = system: HCC 2998
HCT-116 = system: HCT-116
HCT-15 = system: HCT-15
HL-60 = system: HL-60
HOP-62 = system: HOP-62
HOP-92 = system: HOP-92
HT-29 = system: HT-29
Hs-578T = system: Hs-578T
IGROV-1 = system: IGROV-1
K562 = system: K562
KM12 = system: KM12
LOX IMVI = system: LOX IMVI
M14 = system: M14
MCF7 = system: MCF7
MDA-MB-231 = system: MDA-MB-231
MDA-MB-435 = system: MDA-MB-435
MDA-N = system: MDA-N
MOLT-4 = system: MOLT-4
Malme-3M = system: Malme-3M
NCI-H226 = system: NCI-H226
NCI-H23 = system: NCI-H23
NCI-H460 = system: NCI-H460
NCI-H522 = system: NCI-H522
NCI/ADR-RES = system: NCI/ADR-RES
OVCAR-3 = system: OVCAR-3
OVCAR-4 = system: OVCAR-4
OVCAR-5 = system: OVCAR-5
OVCAR-8 = system: OVCAR-8
PC-3 = system: PC-3
RPMI-8226 = system: RPMI-8226
RXF 393 = system: RXF 393
SF-268 = system: SF-268
SF-295 = system: SF-295
SF-539 = system: SF-539
SK-MEL-28 = system: SK-MEL-28
SK-MEL-2 = system: SK-MEL-2
SK-MEL-5 = system: SK-MEL-5
SK-OV-3 = system: SK-OV-3
SN12C = system: SN12C
SNB-19 = system: SNB-19
SNB-75 = system: SNB-75
SR = system: SR
SW-620 = system: SW-620
T47D = system: T47D
TK-10 = system: TK-10
U-251 = system: U-251
UACC-257 = system: UACC-257
UACC-62 = system: UACC-62
UO-31 = system: UO-31

Measured: GI50

O=C(O)c1ccc(C(=O)O)c(C(=O)Nc2ccc3c(c2)C(=O)c2ccccc2-3)c1
inactive: 786-0 > 100 µM | A498 > 100 µM | A549 > 100 µM | ACHN > 100 µM | BT-549 > 100 µM | CAKI-1 > 100 µM | CCRF-CEM 48 µM | COLO 205 > 100 µM | DU-145 > 100 µM | EKVX > 100 µM | HCC 2998 > 100 µM | HCT-116 > 100 µM | HL-60 55.6 µM | HOP-62 > 100 µM | HOP-92 > 100 µM | HT-29 > 100 µM | Hs-578T > 100 µM | IGROV-1 > 100 µM | K562 > 100 µM | KM12 > 100 µM | LOX IMVI > 100 µM | M14 > 100 µM | MCF7 > 100 µM | MDA-MB-231 > 100 µM | MDA-MB-435 > 100 µM | MDA-N > 100 µM | MOLT-4 > 100 µM | Malme-3M > 100 µM | NCI-H226 > 100 µM | NCI-H23 > 100 µM | NCI-H460 > 100 µM | NCI-H522 > 100 µM | NCI/ADR-RES > 100 µM | OVCAR-3 > 100 µM | OVCAR-4 > 100 µM | OVCAR-5 > 100 µM | OVCAR-8 > 100 µM | PC-3 > 100 µM | RPMI-8226 > 100 µM | RXF 393 > 100 µM | SF-268 > 100 µM | SF-295 > 100 µM | SF-539 > 100 µM | SK-MEL-28 > 100 µM | SK-MEL-2 > 100 µM | SK-MEL-5 > 100 µM | SK-OV-3 > 100 µM | SN12C > 100 µM | SNB-19 > 100 µM | SNB-75 > 100 µM | SR > 100 µM | SW-620 > 100 µM | T47D > 100 µM | TK-10 > 100 µM | U-251 > 100 µM | UACC-257 > 100 µM | UACC-62 > 100 µM | UO-31 > 100 µM
> 100 µM: HCT-15

NCCCc1c(-c2ccccc2)[nH]c(N)nc1=O
> 100 µM: HCT-15
inactive: 786-0 > 100 µM | A498 > 100 µM | A549 > 100 µM | ACHN > 100 µM | BT-549 > 100 µM | CAKI-1 > 100 µM | CCRF-CEM > 100 µM | COLO 205 > 100 µM | DU-145 > 100 µM | EKVX > 100 µM | HCC 2998 > 100 µM | HCT-116 > 100 µM | HL-60 > 100 µM | HOP-62 > 100 µM | HOP-92 > 100 µM | HT-29 > 100 µM | Hs-578T > 100 µM | IGROV-1 > 100 µM | K562 > 100 µM | KM12 > 100 µM | LOX IMVI > 100 µM | M14 > 100 µM | MCF7 > 100 µM | MDA-MB-231 > 100 µM | MDA-MB-435 > 100 µM | MDA-N > 100 µM | MOLT-4 > 100 µM | Malme-3M > 100 µM | NCI-H226 > 100 µM | NCI-H23 > 100 µM | NCI-H460 > 100 µM | NCI-H522 > 100 µM | NCI/ADR-RES > 100 µM | OVCAR-3 > 100 µM | OVCAR-4 > 100 µM | OVCAR-5 > 100 µM | OVCAR-8 > 100 µM | PC-3 > 100 µM | RPMI-8226 > 100 µM | RXF 393 > 100 µM | SF-268 > 100 µM | SF-295 > 100 µM | SF-539 > 100 µM | SK-MEL-28 > 100 µM | SK-MEL-2 > 100 µM | SK-MEL-5 > 100 µM | SK-OV-3 > 100 µM | SN12C > 100 µM | SNB-19 > 100 µM | SNB-75 > 100 µM | SR > 100 µM | SW-620 > 100 µM | T47D > 100 µM | TK-10 > 100 µM | U-251 > 100 µM | UACC-257 > 100 µM | UACC-62 > 100 µM | UO-31 > 100 µM
